The text below walks through data of ChEMBL document CHEMBL5465560, “Selectivity Literature for EUbOPEN Chemogenomic Library” (2024).

Experiment [1] deals with Tyrosine-protein kinase JAK1 (Homo sapiens, UniProt P23458). Description: Selectivity interaction (Ambit KINOMEscan and KiNATiv profiling in Jurkat cells) EUB0000090b JAK1. The experiment is classed as cell-based. As to conditions: at 1 µM.
The target in experiment [2] is T1, Serine/threonine-protein kinase Nek2 (Homo sapiens) (UniProt P51955).
T1 sequence (whole entry): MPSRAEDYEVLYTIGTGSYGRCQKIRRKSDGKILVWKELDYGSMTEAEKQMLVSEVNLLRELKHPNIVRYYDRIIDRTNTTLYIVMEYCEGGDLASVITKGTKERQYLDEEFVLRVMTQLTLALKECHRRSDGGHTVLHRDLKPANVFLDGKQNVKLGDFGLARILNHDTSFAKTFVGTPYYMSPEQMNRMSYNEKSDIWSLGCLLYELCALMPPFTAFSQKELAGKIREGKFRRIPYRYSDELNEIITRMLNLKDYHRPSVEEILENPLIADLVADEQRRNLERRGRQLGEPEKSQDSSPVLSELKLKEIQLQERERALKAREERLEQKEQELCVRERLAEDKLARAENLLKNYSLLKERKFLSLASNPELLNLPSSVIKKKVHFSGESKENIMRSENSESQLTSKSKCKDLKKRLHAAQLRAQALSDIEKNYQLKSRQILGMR
Description: Selectivity interaction (Ambit KINOMEscan and KiNATiv profiling in Jurkat cells) EUB0000090b NEK2. Format: cell-based. Particulars: at 1 µM.

In experiment [3] the target is Serine/threonine-protein kinase 10 (Homo sapiens) (UniProt O94804). Particulars: at 10 µM.
The test system of experiment [4] is Epidermal growth factor receptor (Homo sapiens), P00533 [UNDEFINED MUTATION]. Description: Selectivity interaction (KinomeScan (DiscoverX)) EUB0001049a EGFR. As to conditions: at 1 µM.
Experiment [5] has as its target Histamine H1 receptor (Homo sapiens, UniProt P35367). Briefly: Selectivity interaction (Panel of kinases, GPCRs, ion channels and transporters (enzymatic assay)) EUB0000223bCl HRH1.
The target in experiment [6] is Protein kinase C eta type (Homo sapiens) (UniProt P24723). Description: Selectivity interaction (Kinase panel (Invitrogen)) EUB0000639a PRKCH. As to conditions: at 200 nM.
Experiment [7] concerns the target T2, Ephrin type-B receptor 2 (Homo sapiens) (UniProt P29323).
T2 sequence (whole entry): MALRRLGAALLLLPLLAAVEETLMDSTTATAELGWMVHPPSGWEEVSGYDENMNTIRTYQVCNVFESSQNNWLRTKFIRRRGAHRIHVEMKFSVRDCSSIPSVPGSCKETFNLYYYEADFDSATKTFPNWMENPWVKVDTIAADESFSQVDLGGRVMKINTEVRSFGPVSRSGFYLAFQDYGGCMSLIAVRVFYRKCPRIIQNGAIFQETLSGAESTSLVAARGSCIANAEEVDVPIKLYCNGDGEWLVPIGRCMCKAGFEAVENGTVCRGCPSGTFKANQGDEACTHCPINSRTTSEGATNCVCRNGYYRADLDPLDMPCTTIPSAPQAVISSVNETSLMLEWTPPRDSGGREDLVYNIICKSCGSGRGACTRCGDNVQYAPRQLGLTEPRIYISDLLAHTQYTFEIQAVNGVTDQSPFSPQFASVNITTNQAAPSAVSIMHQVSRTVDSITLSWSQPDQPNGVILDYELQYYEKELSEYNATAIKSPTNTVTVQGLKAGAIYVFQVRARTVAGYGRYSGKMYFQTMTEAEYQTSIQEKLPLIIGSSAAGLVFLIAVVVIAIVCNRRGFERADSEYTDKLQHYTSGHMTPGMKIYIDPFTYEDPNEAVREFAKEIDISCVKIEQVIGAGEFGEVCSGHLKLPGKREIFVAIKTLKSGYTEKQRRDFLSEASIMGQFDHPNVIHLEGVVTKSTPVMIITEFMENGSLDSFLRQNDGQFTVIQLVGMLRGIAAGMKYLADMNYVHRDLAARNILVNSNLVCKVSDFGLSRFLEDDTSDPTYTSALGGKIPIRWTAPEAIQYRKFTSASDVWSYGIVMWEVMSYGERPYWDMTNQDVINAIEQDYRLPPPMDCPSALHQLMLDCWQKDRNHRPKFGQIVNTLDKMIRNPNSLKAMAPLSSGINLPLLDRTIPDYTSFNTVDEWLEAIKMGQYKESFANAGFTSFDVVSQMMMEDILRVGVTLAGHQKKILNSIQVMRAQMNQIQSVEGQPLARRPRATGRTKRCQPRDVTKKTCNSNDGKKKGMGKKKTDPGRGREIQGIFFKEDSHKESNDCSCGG
Briefly: Selectivity interaction (KinomeScan (DiscoverX)) EUB0000229b EPHB2. Particulars: at 10 µM.

The target of experiment [8] is Activated CDC42 kinase 1 (Homo sapiens, UniProt Q07912). Description: Selectivity interaction (KinomeScan (DiscoverX)) EUB0001619a TNK2. Particulars: at 1 µM.
The target of experiment [9] is T3, Ephrin type-A receptor 8 (Homo sapiens) (UniProt P29322).
T3 sequence (whole entry): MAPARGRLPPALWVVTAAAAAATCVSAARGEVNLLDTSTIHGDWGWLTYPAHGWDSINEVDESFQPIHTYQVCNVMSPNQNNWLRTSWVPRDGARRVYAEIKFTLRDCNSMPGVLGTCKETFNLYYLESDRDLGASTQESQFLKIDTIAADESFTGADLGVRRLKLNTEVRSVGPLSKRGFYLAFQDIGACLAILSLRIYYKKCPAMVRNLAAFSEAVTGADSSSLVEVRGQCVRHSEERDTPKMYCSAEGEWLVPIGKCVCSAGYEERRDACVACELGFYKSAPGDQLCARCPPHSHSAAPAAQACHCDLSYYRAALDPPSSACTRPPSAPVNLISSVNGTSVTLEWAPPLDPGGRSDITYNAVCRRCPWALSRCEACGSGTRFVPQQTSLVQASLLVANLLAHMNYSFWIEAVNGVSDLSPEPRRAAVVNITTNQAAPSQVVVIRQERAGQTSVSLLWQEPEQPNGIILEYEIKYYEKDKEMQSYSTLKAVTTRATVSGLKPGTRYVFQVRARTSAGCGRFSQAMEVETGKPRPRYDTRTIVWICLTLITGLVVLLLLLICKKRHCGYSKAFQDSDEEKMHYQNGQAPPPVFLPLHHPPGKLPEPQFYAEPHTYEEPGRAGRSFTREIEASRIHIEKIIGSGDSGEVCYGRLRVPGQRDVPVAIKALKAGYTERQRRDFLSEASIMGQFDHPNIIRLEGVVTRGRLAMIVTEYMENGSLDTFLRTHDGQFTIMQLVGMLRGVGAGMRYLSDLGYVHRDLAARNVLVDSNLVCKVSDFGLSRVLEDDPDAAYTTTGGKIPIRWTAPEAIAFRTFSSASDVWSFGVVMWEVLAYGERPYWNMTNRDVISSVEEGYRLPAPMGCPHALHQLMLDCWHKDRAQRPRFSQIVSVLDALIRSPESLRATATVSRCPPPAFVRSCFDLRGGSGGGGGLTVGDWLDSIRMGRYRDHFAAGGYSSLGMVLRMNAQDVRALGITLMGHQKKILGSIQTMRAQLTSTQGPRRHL
Description: Selectivity interaction (KinomeScan (DiscoverX)) EUB0001619a EPHA8. Particulars: at 1 µM.

Sequence of Histamine H1 receptor (P35367 whole entry): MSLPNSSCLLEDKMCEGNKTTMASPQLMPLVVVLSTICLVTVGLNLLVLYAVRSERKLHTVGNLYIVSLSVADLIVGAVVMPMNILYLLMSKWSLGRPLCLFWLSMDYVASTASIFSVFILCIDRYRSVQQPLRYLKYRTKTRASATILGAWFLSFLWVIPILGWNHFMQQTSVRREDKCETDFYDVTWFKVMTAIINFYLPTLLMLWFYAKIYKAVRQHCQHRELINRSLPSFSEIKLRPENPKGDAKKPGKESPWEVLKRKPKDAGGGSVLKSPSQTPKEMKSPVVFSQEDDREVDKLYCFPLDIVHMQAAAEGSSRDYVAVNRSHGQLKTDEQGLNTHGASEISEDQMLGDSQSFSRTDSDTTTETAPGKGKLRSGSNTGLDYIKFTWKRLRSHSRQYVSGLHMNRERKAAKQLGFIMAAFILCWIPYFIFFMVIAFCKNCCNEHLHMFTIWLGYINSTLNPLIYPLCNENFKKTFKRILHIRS
Sequence of Activated CDC42 kinase 1 (Q07912 whole entry, looked up): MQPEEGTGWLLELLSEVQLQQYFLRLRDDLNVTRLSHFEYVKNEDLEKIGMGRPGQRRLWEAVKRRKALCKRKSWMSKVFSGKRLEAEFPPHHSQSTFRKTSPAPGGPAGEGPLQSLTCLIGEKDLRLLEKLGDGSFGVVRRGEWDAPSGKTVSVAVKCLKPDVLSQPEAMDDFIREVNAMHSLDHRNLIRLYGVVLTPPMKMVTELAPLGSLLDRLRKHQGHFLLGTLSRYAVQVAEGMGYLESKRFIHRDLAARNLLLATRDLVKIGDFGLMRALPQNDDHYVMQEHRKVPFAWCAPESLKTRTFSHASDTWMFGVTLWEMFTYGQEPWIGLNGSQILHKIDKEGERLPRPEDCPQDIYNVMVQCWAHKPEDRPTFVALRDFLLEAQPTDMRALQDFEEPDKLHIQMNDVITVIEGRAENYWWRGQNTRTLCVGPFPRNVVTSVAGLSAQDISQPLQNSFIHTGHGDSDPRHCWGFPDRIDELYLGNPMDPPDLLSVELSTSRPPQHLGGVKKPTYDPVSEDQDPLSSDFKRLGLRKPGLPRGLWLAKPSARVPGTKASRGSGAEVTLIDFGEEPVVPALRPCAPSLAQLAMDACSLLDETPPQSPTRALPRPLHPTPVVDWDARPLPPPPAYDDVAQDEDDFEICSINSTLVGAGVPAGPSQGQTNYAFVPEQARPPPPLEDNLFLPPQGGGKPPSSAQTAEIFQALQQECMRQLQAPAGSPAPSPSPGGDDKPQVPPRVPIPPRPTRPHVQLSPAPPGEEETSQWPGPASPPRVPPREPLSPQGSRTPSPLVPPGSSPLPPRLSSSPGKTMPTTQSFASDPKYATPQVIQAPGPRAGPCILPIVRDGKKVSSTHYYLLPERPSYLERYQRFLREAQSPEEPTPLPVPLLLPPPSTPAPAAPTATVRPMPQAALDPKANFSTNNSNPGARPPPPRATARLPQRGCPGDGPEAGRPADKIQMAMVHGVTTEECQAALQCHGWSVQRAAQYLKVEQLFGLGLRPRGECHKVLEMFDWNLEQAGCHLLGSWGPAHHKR
Sequence of Tyrosine-protein kinase JAK1 (P23458 whole entry): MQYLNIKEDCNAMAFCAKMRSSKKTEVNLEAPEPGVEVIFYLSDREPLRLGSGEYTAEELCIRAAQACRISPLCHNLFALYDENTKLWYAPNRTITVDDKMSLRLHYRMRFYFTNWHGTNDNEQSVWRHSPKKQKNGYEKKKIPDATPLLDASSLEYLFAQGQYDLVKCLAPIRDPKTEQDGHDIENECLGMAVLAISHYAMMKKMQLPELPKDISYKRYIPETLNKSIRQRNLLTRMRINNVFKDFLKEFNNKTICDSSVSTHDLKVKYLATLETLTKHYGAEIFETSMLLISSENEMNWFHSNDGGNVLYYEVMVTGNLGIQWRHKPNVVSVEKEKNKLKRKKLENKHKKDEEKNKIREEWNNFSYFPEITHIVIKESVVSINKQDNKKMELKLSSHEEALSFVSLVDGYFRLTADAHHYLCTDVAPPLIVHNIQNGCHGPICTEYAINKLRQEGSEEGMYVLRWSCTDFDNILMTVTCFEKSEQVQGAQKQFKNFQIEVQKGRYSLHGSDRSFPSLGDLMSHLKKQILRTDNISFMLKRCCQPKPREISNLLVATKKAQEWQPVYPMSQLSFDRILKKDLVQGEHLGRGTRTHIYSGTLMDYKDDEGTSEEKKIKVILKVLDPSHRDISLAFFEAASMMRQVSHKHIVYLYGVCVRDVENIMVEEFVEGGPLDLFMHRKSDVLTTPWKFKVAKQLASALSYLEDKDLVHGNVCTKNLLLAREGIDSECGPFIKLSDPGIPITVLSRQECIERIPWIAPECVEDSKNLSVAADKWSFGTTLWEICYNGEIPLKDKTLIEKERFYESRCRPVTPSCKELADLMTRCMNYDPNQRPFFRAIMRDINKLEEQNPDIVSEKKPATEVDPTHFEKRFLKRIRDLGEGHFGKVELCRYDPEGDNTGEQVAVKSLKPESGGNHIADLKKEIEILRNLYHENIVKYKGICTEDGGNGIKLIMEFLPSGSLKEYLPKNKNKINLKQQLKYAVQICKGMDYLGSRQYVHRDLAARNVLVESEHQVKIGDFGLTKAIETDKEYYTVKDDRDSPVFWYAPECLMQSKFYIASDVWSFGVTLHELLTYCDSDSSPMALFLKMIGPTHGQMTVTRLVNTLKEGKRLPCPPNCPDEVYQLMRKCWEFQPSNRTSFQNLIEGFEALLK
Sequence of Epidermal growth factor receptor (Homo sapiens), P00533 [UNDEFINED MUTATION] (P00533 whole entry, looked up, change not shown): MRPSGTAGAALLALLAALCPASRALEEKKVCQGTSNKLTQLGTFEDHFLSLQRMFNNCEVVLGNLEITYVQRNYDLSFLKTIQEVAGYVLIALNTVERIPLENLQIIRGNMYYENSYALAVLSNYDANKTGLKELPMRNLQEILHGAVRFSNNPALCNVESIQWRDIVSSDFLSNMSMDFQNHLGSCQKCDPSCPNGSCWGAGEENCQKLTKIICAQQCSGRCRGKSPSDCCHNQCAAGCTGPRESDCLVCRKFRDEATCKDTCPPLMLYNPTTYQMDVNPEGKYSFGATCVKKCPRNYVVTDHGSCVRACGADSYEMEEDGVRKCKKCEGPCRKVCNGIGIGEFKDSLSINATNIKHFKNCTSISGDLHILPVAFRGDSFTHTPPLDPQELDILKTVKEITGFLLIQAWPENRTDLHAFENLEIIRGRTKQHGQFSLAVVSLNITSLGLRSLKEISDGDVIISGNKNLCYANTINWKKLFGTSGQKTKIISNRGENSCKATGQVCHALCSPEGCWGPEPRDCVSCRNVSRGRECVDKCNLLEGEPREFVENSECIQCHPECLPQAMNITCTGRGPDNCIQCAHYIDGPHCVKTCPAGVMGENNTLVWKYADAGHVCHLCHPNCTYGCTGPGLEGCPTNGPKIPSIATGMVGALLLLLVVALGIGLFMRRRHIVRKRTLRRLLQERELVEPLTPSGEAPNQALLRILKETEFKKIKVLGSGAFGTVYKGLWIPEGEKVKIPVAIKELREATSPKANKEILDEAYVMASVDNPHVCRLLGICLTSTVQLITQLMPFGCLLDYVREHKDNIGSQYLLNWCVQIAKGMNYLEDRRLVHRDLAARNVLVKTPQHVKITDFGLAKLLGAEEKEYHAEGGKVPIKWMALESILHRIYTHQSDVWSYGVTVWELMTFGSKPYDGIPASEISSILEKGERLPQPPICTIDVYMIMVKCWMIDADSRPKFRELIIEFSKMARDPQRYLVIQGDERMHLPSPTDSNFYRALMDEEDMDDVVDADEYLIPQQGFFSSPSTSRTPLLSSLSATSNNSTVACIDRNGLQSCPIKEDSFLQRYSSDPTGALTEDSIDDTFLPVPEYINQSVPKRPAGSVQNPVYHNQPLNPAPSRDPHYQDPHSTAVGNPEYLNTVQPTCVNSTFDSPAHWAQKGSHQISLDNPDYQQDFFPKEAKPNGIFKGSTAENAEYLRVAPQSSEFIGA
Sequence of Serine/threonine-protein kinase 10 (Homo sapiens) (O94804 whole entry, looked up): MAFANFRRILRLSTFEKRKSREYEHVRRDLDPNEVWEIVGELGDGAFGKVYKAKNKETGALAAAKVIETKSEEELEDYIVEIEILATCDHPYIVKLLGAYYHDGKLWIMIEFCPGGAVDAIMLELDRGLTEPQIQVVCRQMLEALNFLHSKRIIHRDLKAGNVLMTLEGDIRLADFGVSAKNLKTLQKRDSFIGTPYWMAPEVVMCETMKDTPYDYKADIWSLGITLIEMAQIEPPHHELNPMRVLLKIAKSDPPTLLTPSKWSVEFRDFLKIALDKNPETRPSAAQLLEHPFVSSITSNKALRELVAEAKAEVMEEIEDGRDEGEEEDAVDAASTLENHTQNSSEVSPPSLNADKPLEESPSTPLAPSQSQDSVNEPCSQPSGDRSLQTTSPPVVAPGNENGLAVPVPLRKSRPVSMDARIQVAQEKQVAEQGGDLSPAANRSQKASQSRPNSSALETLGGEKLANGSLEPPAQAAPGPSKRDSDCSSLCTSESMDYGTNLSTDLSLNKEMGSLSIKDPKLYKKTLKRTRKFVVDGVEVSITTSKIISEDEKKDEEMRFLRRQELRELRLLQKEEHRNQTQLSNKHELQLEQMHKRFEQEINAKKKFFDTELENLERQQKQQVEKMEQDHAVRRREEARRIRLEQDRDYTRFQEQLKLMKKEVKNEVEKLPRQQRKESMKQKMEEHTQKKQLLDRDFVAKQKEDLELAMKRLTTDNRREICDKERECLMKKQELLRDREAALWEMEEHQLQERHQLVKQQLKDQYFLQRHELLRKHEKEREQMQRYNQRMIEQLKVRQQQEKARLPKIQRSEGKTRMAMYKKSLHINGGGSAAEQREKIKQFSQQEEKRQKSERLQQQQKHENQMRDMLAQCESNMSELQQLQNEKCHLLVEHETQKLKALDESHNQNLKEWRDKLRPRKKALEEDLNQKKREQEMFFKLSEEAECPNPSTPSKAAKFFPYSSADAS

As to `CN(C)C/C=C/C(=O)Nc1ccc(C(=O)N2CCCC(Nc3ncc(Cl)c(-c4c[nH]c5ccccc45)n3)C2)cc1` (centres undefined), the figures for the % of control in experiment [1] and in [2] were 70% and 97%, respectively.

Regarding `CCN(CC)CCCCNc1ncc2cc(-c3cc(OC)cc(OC)c3)c(NC(=O)NC(C)(C)C)nc2n1`, the % of control in experiment [3] was found to be 100%.

`COc1cc(Nc2nc(C)cc(-c3cnn4nc(OC)ccc34)n2)cc(C(F)(F)F)c1` had a % of control in [4] of 53%.

For the compound `COc1cc(C(=O)N2CC[C@@H](O)[C@@H](N)C2)cc2nc(-c3cc4ccccc4n3CC3CC3)n(C)c12`, in [5], the pXC50 is below 4.4 M.

The compound `CC[C@@H]1[C@H](F)C(=O)N[C@@H]1COc1nccc2cc(C(N)=O)c(OC)cc12` [ZIMLOVISERTIB] had a % of inhibition in [6] of 7.47%.

For the compound `COc1cc(N(C)c2ccnc3ccc(C(F)(F)F)cc23)cc(OC)c1OC`, in experiment [7], the % binding is 93%.

`N#Cc1cccc(-c2c[nH]c3ncnc(N4CCOCC4)c23)c1`: the % of control in experiment [8] came out at 98%; in experiment [9], 100%.
